The values below come from article PMC10721786, “Development of a potent benzonitrile-based inhibitor of glutaminyl-peptide cyclotransferase-like protein (QPCTL) with antitumor efficacy” (Signal Transduction and Targeted Therapy, 2023).

For one assay, the target named is T1, QPCTL (Homo sapiens, UniProt Q9NXS2).
T1 construct: made in house; host or cells: Escherichia coli BL21 (DE3)
Kind of assay: Enzyme activity assay (fluorescent, H-Gln-AMC / PGPEP I coupled) against QPCTL. The class given is biochemical. The note with it: mean ± SD of three independent experiments. Here is the method: The DNA with sequence coding for the human glutaminyl-peptide cyclotransferase-like protein (nucleotide entry: NP_060129) was synthesized and then inserted into the pGEX-4T-2 vector. The vector was transformed into Escherichia coli BL21 (DE3) competent cells (Tiangen Biotech, Cat. # CB105). The bacteria were grown in LB media containing ampicillin (100 μg/ mL) at 37 °C until the cell density reached an OD600 of 0.8- 0.9. The cultures were induced with 1 mM IPTG for 8- 10 h at 20 °C. The bacteria were collected and resuspended in 50 mL PBS, and 1% Triton X-100 (v/v), 1% β-mercaptoethanol (v/v), PMSF (final concentration 1 mM) were added into the mixed solution. The bacterial cells were then harvested by centrifugation (4,700 g for 30 min at 4 °C) followed by ultrasonic breaking. The resulted solution was clarified by centrifugation at 13,800 g for 30 min. GST-beads was suspended to the supernatant and was gently shook for 1 hour to bind the protein. The resulted protein solution was centrifuged at 1,500 g for 5 min and the supernatant was discarded. At least 10-fold the volume of PBS was added to the pellet to sufficiently suspend the beads in the solution. Then the solution was clarified by centrifugation at 1,500 g for 5 min and the supernatant was discarded. The above steps were repeated twice. 1 mL GST elution buffer was added to the pellet and the solution was shaken gently for 30 min following by centrifugation at 1,500 g for 5 min. The supernatant was collected and was eluted with GST elution buffer at least twice. The supernatant was loaded onto SDS-PAGE electrophoresis to detect protein purity. The protein was stored in 20% glycerol at -80 °C.
Enzyme activity was measured by conversion of glutamine-4-amino-7-methylcounarine (H-Gln-AMC) to pyroglutamyl-AMC, which is subsequently a specific substrate for PGPEP I, releasing free AMC which can be fluorescently detected. For typical inhibition assay, 12.5 μL QPCTL protein (7 ng/μL) or QPCT protein (7 ng/μL) (MedChemExpress, Cat. #HY-P76560) and 2.5 μL of tested compounds with different concentrations were pipetted into a 384-well plate on ice. The reaction system was reacted in a shaker at 37 °C, 100 rpm for 10 minutes. Next, 10 μL fluorescent substrate H-Gln-AMC (500 μM) was added and incubated in 100 rpm for 20 min at 37 °C. […] Once done, the plate was moved over to TECAN Infinite 200PRO plate-reader to monitor and record the maximum fluorescence at 380nm excitation/ 460nm emission. The fluorescent signal value obtained was analyzed by Graphpad Prism 8.0 to obtain the inhibitory rate and IC50 of the compound.

Assay [1] relates to pGlu-CD47. Kind of assay: Flow cytometry of pGlu-CD47 (hCD47-CC2C6 binding) in HEK293T cells. Format: cell-based, human. Particulars: for IC50: Homo sapiens, HEK-293T, treatment 48 h, read-out: IC50, dose-dependent inhibition of pGlu-CD47. Here is the method:
(§1) Binding to cell surface CD47 was assessed by staining cells with fluorochrome-labeled antibodies clone CC2C6 (BioLegend, Cat. # 323102) and B6H12 (Abcam, Cat. # ab134485) to human CD47 at a dilution of 1:100 in PBS containing 1% FBS (FACS buffer) for 30 min on ice, while protected from light. SIRPα binding to CD47 was assessed by incubating cells with PE labeled recombinant human SIRPα/ CD172α Protein, Fc tag (ACRO Biosystems, Cat. # SIA-HP252) or PE labeled mouse SIRPα Protein, His tag (ACRO Biosystems, Cat. # SIA-MP2H6) for 1 hour on ice, while protected from light.

Assay [2] relates to pGlu-CD47. Kind of assay: hCD47-CC2C6 binding to various cancer cells (H929, HCT116, Huh7, SKOV3, SU-DHL-8, T24, H1299, MCF-7). Format: cell-based, human. Particulars: 500 nM, 48 h. Here is the method:
as §1

Another assay concerns CD47. Kind of assay: Overall cell surface CD47 (hCD47-B6H12 binding) in HEK293T and Raji cells. The class given is cell-based, human. Particulars: 100 nM, 48 h. As to the method:
as §1

Assay [3] concerns pGlu-CD47. Kind of assay: Flow cytometry of pGlu-CD47 (hCD47-CC2C6 binding) in Raji cells. Format: cell-based, human. Particulars: 100 nM, 48 h. As to the method:
as §1
(A flow cytometer gives signals particle by particle.)

The next assay relates to CD47/SIRPα. Kind of assay: Cell surface binding of human or mouse SIRPα protein to tumor cells (Raji, B16F10), flow cytometry. Format: cell-based. As to the method: as §1

T1 sequence (Q9NXS2 whole entry): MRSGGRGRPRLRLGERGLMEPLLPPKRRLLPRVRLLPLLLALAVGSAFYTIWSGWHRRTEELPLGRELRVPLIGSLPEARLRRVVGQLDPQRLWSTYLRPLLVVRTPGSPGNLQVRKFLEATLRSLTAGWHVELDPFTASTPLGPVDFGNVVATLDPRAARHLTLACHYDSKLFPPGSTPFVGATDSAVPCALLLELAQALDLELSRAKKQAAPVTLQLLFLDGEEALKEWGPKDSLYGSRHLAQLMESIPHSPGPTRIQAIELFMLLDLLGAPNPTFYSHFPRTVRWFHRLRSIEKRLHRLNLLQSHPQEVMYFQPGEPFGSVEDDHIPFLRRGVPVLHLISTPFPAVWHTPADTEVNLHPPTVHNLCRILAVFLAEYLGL

In general, IC50 refers to the midpoint of a concentration-inhibition curve. On QPCTL, `Cn1cnnc1C1CCN(c2c(C#N)cccc2-c2cncc(C#N)c2)CC1` [Compound 15] yielded an IC50 of 124 ± 9.8 nM. Regarding `Cn1cnnc1C1CCN(c2c(C#N)cccc2-c2ccc(O)nc2)CC1` [Compound 20], the IC50 on QPCTL stood at 187 ± 20.8 nM. On QPCTL, `COc1ccncc1-c1cccc(C#N)c1N1CCC(c2nncn2C)CC1` [Compound 16] came in with an IC50 greater than 1000 nM. Compound `Cn1cnnc1C1CCN(c2c(C#N)cccc2-c2cncc(F)c2)CC1` [Compound 14] gave an IC50 on QPCTL of 73.6 ± 11.5 nM. Same read-out and setting: next, `Cn1cnnc1C1CCN(c2c(C#N)cccc2-c2ccoc2)CC1` [Compound 24]: 135 ± 64.3 nM; `Cc1ccncc1-c1cccc(C#N)c1N1CCC(c2nncn2C)CC1` [Compound 18]: 74.5 ± 13.4 nM. At QPCTL, `Cc1nnc(C2CCN(c3c(C#N)cccc3-c3ccc(F)nc3)CC2)n1C` [Compound 26] showed an IC50 of 94.3 ± 13.9 nM. On QPCTL, `Cn1cnnc1C1CCN(c2c(C#N)cccc2-c2ccc(N)nc2)CC1` [Compound 12] showed an IC50 of 471 ± 244 nM. `Cn1cnnc1C1CCN(c2c(C#N)cccc2-c2cnccc2C(F)(F)F)CC1` [Compound 17]: on QPCTL, the IC50 was found to be 53.5 ± 11.8 nM. Same read-out and setting: next, `Cn1cnnc1C1CCN(c2c(C#N)cccc2-c2ccncc2)CC1` [Compound 7]: greater than 1000 nM; `CC(C)n1cnnc1C1CCN(c2c(C#N)cccc2-c2ccc(F)nc2)CC1` [Compound 27]: greater than 1000 nM.

In the case of `Cn1cnnc1C1CCN(c2c(C#N)cccc2-c2ccc(F)nc2)CC1` [QP5020], the “inhibitory effect on CD47 pyroglutamation compared to SEN177 and PQ912” value was “superior inhibitory effects” in the assay on pGlu-CD47 [1] (100 nM, 48 h) and “superior inhibitory effects” with pGlu-CD47 [3]. Also, the IC50 with pGlu-CD47 [1] stood at 6.4 ± 0.7 nM. Besides, the “CD47 pyroglutamation in various types of cancer cells” value with pGlu-CD47 [2] is on record as “significantly attenuated”. Further, in the assay with CD47, the “overall cell surface levels of CD47” value is “did not alter”. For the same compound, the “binding of human or mouse SIRPα protein to cell surface” value with CD47/SIRPα is “significantly reduced”. As to `Cn1cnnc1C1CCN(c2c(C#N)cccc2-c2ccc(C#N)nc2)CC1` [Compound 11], the half-maximal inhibitory concentration (IC50) at QPCTL stood at 417 ± 210 nM.

Consider `CCCOc1ccc([C@H]2CNC(=O)N2c2ccc3[nH]cnc3c2)cc1` [PQ912, reference compound], for which the results for the IC50 in the assay on pGlu-CD47 [1] and against QPCTL were 988 ± 409 nM and 51.8 ± 6.2 nM, respectively. In the case of `COc1ccc(-c2cccc(C#N)c2N2CCC(c3nncn3C)CC2)cn1` [Compound 13], the IC50 at QPCTL was found to be 368 ± 82 nM. As to `Cn1cnnc1C1CCN(c2ccccc2C#N)CC1` [Compound 8], the IC50 against QPCTL is greater than 1000 nM. On to `Cn1cnnc1C1CCN(c2c(C#N)cccc2-c2ccc(C(F)(F)F)nc2)CC1` [Compound 10], for which the IC50 against QPCTL was greater than 1000 nM. For the compound `Cn1cnnc1C1CCN(c2c(C#N)cccc2-c2cncnc2)CC1` [Compound 9], the IC50 at QPCTL turned out to be 76.5 ± 21.3 nM. At QPCTL, `Cn1cnnc1C1CCN(c2c(C#N)cccc2-c2ccn(C)c(=O)c2)CC1` [Compound 23] registered an IC50 of 19.6 ± 12.5 nM.

For `Cn1cnnc1C1CCN(c2c(C#N)cccc2-c2cccnc2)CC1` [Compound 5], on QPCTL, the IC50 worked out at 56.5 ± 11.3 nM.

Regarding `Cn1cnnc1C1CCN(c2c(C#N)cccc2-c2cnccc2Cl)CC1` [Compound 19], the IC50 on QPCTL was 105 ± 22.3 nM.

`Cn1cnnc1C1CCN(c2c(C#N)cccc2-c2ccc(=O)n(C)c2)CC1` [Compound 21] had an IC50 at QPCTL of 573 ± 85.5 nM.

On QPCTL, `Cn1cnnc1C1CCN(c2c(C#N)cccc2-c2cc[nH]c(=O)c2)CC1` [Compound 22] gave an IC50 of 17.6 ± 6.2 nM. `Cc1noc(C)c1-c1cccc(C#N)c1N1CCC(c2nncn2C)CC1` [Compound 25]: on QPCTL, the IC50 is greater than 1000 nM.

Consider `N#Cc1cccc(-c2ccc(F)nc2)c1N1CCC(c2cnc[nH]2)CC1` [Compound 29], for which the IC50 on QPCTL is greater than 1000 nM. In turn, `Cn1cnnc1C1CCN(c2c(C#N)cccc2-c2ccccc2)CC1` [Compound 6] registered an IC50 at QPCTL greater than 1000 nM.
